Measurements reported in ChEMBL document CHEMBL1629430, “2'-deoxy-2'-α-fluoro-2'-β-C-methyl 3',5'-cyclic phosphate nucleotide prodrug analogs as inhibitors of HCV NS5B polymerase: discovery of PSI-352938” (Bioorg Med Chem Lett, 2010).
Blank lines part the entries; values can stand above or below the compound they belong to.

What was measured:
Hepatitis C virus [1] = assay: Antiviral activity against Hepatitis C virus -infected in human HuH7 cells; format: functional, Hepacivirus hominis, Huh-7
[2] = Cytotoxicity against human HuH7 cells; format: cell-based, Huh-7
[3] = Drug level in Hepatitis C virus -infected human HuH7 cells assessed as cellular triphosphate level at 100 uM after 72 hrs by HPLC method; format: ADME, cell-based; conditions: huh-7, 72 h
[4] = Mitochondrial toxicity in human CEM cells; format: cell-based; conditions: CEM cells (CCRF-CEM)
[5] = Half life of the compound in simulated intestinal fluid; format: physicochemical; conditions: for half-life: simulated intestinal fluid, read-out: Stability
[6] = Cytotoxicity against human BxPC3 cells; format: cell-based, BXPC-3
Hepatocyte = assay: Drug level in human hepatocytes assessed as cellular triphosphate level at 100 uM after 72 hrs by HPLC method; format: ADME, cell-based
Liver = assay: AUC (0 to 24 hrs) in rat liver; format: ADME, tissue-based; parameters: time < 24 hr; conditions: in vivo
[7] = Half life of the compound in simulated gastrointestinal fluid; format: physicochemical; conditions: read-out: Stability (converted)
[8] = Half life in human plasma; format: ADME, cell-free; conditions: read-out: Stability (converted)
[9] = Cytotoxicity against human HepG2 cells; format: cell-based
Hepatitis C virus [10] = assay: Antiviral activity against Hepatitis C virus harboring NS5B S282T mutant -infected in human HuH7 cells; format: functional, Hepacivirus hominis, Huh-7
Rattus norvegicus [11] = assay: AUC (0 to 24 hrs) in rat liver assessed as 2'-Deoxy-2'-alpha-F-2'-beta-C-methyl guanosine triphosphate level at 50 mg/kg, po; format: ADME, organism-based; parameters: time < 24 hr, dose 50 mg/kg, route oral; conditions: in vivo
[12] = Half life in human liver S9 fraction; format: ADME, subcellular; conditions: read-out: Stability (converted)
[13] = Cytotoxicity against human CEM cells; format: cell-based; conditions: CEM cells (CCRF-CEM)
Hepatitis C virus [14] = assay: Antiviral activity against wild-type Hepatitis C virus -infected in human HuH7 cells; format: functional, Hepacivirus hominis, Huh-7
[15] = Mitochondrial toxicity in human HepG2 cells; format: cell-based
Rattus norvegicus [16] = assay: Cmax in rat liver assessed as 2'-Deoxy-2'-alpha-F-2'-beta-C-methyl guanosine triphosphate level at 50 mg/kg, po; format: ADME, organism-based; parameters: dose 50 mg/kg, route oral; conditions: in vivo
[17] = molecular target: RNA-directed RNA polymerase (Hepacivirus hominis, UniProt O39930); assay: Inhibition of HCV NS5B polymerase
RNA-directed RNA polymerase, sequence (O39930 whole entry): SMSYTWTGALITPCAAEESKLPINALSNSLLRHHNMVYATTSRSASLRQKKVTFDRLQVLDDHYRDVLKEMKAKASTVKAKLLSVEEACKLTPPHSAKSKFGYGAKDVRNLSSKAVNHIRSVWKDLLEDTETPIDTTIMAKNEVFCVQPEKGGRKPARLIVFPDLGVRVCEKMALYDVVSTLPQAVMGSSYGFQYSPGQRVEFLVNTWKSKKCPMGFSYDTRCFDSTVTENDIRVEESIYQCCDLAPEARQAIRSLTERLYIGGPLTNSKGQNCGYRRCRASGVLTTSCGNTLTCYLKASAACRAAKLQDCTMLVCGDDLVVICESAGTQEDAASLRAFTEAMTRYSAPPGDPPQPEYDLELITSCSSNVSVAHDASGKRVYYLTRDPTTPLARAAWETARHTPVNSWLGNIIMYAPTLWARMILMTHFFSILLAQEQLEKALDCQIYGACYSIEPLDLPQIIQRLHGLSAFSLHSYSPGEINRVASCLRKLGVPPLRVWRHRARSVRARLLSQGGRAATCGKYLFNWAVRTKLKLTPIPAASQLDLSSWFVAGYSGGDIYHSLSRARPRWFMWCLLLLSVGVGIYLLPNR

EC90 (Hepatitis C virus [1]; Hepatitis C virus, Huh-7): 5.05 µM
SMILES: COP1(=O)OC[C@H]2O[C@@H](n3cnc4c(OCc5ccccc5)nc(N)nc43)[C@](C)(F)[C@@H]2O1 (stereo partly drawn)

EC90 (Hepatitis C virus [1]; Hepatitis C virus, Huh-7): 1.56 µM
SMILES: COP1(=O)OC[C@H]2O[C@@H](n3cnc4c(NC5CCC5)nc(N)nc43)[C@](C)(F)[C@@H]2O1 (stereo partly drawn)

EC90 (Hepatitis C virus [1]; Hepatitis C virus, Huh-7): 7.2 µM
SMILES: COP1(=O)OC[C@H]2O[C@@H](n3cnc4c(NC5CCCC5)nc(N)nc43)[C@](C)(F)[C@@H]2O1 (stereo partly drawn)

EC90 (Hepatitis C virus [1]; Hepatitis C virus, Huh-7): 69.2 µM
SMILES: CCO[P@@]1(=O)OC[C@H]2O[C@@H](n3cnc4c(N5CCC5)nc(N)nc43)[C@](C)(F)[C@@H]2O1

EC90 (Hepatitis C virus [1]; Hepatitis C virus, Huh-7): 18.6 µM
SMILES: CC(C)O[P@@]1(=O)OC[C@H]2O[C@@H](n3cnc4c(N5CCC5)nc(N)nc43)[C@](C)(F)[C@@H]2O1

EC90 (Hepatitis C virus [1]; Hepatitis C virus, Huh-7): 7.3 µM
SMILES: C[C@@]1(F)[C@@H]2O[P@@](=O)(OC3CCC3)OC[C@H]2O[C@H]1n1cnc2c(N3CCC3)nc(N)nc21

EC90 (Hepatitis C virus [1]; Hepatitis C virus, Huh-7): 69 µM
SMILES: C[C@@]1(F)[C@H](O)[C@@H](CO)O[C@H]1n1cnc2c(O)nc(N)nc21

EC90 (Hepatitis C virus [1]; Hepatitis C virus, Huh-7): 48.1 µM
SMILES: CCCCNc1nc(N)nc2c1ncn2[C@@H]1O[C@@H]2COP(=O)(OCC)O[C@H]2[C@@]1(C)F (single isomer, unassigned)

EC90 (Hepatitis C virus [1]; Hepatitis C virus, Huh-7): 9.28 µM
SMILES: CCCCNc1nc(N)nc2c1ncn2[C@@H]1O[C@@H]2COP(=O)(OC(C)C)O[C@H]2[C@@]1(C)F (single isomer, unassigned)

EC90 (Hepatitis C virus [1]): 23.8 µM
SMILES: CCCOc1nc(N)nc2c1ncn2[C@@H]1O[C@@H]2CO[P@](=O)(OCCC)O[C@H]2[C@@]1(C)F (stereo in doubt; 26a)

EC90 (Hepatitis C virus [1]): 5.27 µM
SMILES: CCCOc1nc(N)nc2c1ncn2[C@@H]1O[C@@H]2CO[P@](=O)(OCCC)O[C@H]2[C@@]1(C)F (stereo in doubt; 26b)
CC50 [2]: > 11 µM

EC90 (Hepatitis C virus [1]; Hepatitis C virus, Huh-7): 3.9 µM
SMILES: CC(C)C(=O)OC[C@H]1O[C@@H](n2ccc(N)nc2=O)[C@](C)(F)[C@@H]1OC(=O)C(C)C [MERICITABINE]
CC50 [2]: > 100 µM

IC50 [17]: 5.94 µM
SMILES: C[C@@]1(F)[C@H](O)[C@@H](COP(=O)(O)OP(=O)(O)OP(=O)(O)O)O[C@H]1n1cnc2c(=O)[nH]c(N)nc21 [PSI-352666]
CC50 [2]: > 100 µM

The next lines start with the compound.

SMILES: CO[P@@]1(=O)OC[C@H]2O[C@@H](n3cnc4c(O)nc(N)nc43)[C@](C)(F)[C@@H]2O1
EC90 (Hepatitis C virus [1]; Hepatitis C virus, Huh-7): 11.8 µM
CC50 [2]: > 65 µM

SMILES: CCOc1nc(N)nc2c1ncn2[C@@H]1O[C@@H]2COP(=O)(OC)O[C@H]2[C@@]1(C)F (stereo partly drawn)
Drug uptake [3]: 0.08 mM
CC50 [4]: > 100 µM
half-life [5]: > 20 h
CC50 [6]: > 100 µM
Drug uptake (Hepatocyte): 0.12 mM
AUC (Liver): 8310 ng·h/g
half-life [7]: > 20 h
half-life [8]: 8.88 h
EC90 (Hepatitis C virus [1]; Hepatitis C virus, Huh-7): 0.41 µM
CC50 [2]: > 30 µM
CC50 [9]: 95 µM
EC90 (Hepatitis C virus [10]; Hepatitis C virus, Huh-7): 0.4 µM
AUC (Rattus norvegicus [11]): 4090 ng·h/g
half-life [12]: > 24 h
CC50 [13]: > 100 µM
EC90 (Hepatitis C virus [14]; Hepatitis C virus, Huh-7): 0.41 µM
CC50 [15]: > 100 µM
Cmax (Rattus norvegicus [16]): 613 ng/g

SMILES: CCCOc1nc(N)nc2c1ncn2[C@@H]1O[C@@H]2COP(=O)(OC)O[C@H]2[C@@]1(C)F (stereo partly drawn)
EC90 (Hepatitis C virus [1]; Hepatitis C virus, Huh-7): 0.83 µM
CC50 [2]: > 30 µM

SMILES: CCCNc1nc(N)nc2c1ncn2[C@@H]1O[C@@H]2COP(=O)(OC)O[C@H]2[C@@]1(C)F (stereo partly drawn)
CC50 [4]: > 100 µM
half-life [5]: > 20 h
CC50 [6]: > 100 µM
half-life [7]: 4 h
half-life [8]: 15.7 h
EC90 (Hepatitis C virus [1]; Hepatitis C virus, Huh-7): 0.92 µM
CC50 [2]: > 30 µM
CC50 [9]: > 100 µM
EC90 (Hepatitis C virus [10]; Hepatitis C virus, Huh-7): 3.08 µM
half-life [12]: > 24 h
CC50 [13]: > 100 µM
EC90 (Hepatitis C virus [14]; Hepatitis C virus, Huh-7): 0.92 µM
CC50 [15]: 14 µM

SMILES: COP1(=O)OC[C@H]2O[C@@H](n3cnc4c(N5CCC5)nc(N)nc43)[C@](C)(F)[C@@H]2O1 (stereo partly drawn)
CC50 [4]: > 100 µM
half-life [5]: > 20 h
CC50 [6]: > 100 µM
half-life [7]: > 20 h
half-life [8]: 8.33 h
EC90 (Hepatitis C virus [1]; Hepatitis C virus, Huh-7): 0.98 µM
CC50 [2]: > 30 µM
CC50 [9]: > 100 µM
EC90 (Hepatitis C virus [10]; Hepatitis C virus, Huh-7): 1.53 µM
half-life [12]: 2.53 h
CC50 [13]: > 100 µM
EC90 (Hepatitis C virus [14]; Hepatitis C virus, Huh-7): 0.98 µM
CC50 [15]: > 100 µM

SMILES: CCOc1nc(N)nc2c1ncn2[C@@H]1O[C@@H]2COP(=O)(Oc3ccccc3)O[C@H]2[C@@]1(C)F (stereo partly drawn)
EC90 (Hepatitis C virus [1]; Hepatitis C virus, Huh-7): 1.72 µM

SMILES: C[C@@]1(F)[C@@H]2O[P@@](=O)(Oc3ccccc3)OC[C@H]2O[C@H]1n1cnc2c(N3CCC3)nc(N)nc21
EC90 (Hepatitis C virus [1]; Hepatitis C virus, Huh-7): 7.7 µM

SMILES: CCCCNc1nc(N)nc2c1ncn2[C@@H]1O[C@@H]2COP(=O)(Oc3ccccc3)O[C@H]2[C@@]1(C)F (single isomer, unassigned)
EC90 (Hepatitis C virus [1]; Hepatitis C virus, Huh-7): 4.76 µM

SMILES: CCOc1nc(N)nc2c1ncn2[C@@H]1O[C@@H]2CO[P@](=O)(OC(C)C)O[C@H]2[C@@]1(C)F (stereo in doubt; 24a)
Drug uptake [3]: 0.41 mM
CC50 [4]: > 100 µM
half-life [5]: > 20 h
CC50 [6]: > 100 µM
Drug uptake (Hepatocyte): 0.59 mM
AUC (Liver): 13234 ng·h/g
half-life [7]: > 20 h
half-life [8]: > 24 h
EC90 (Hepatitis C virus [1]; Hepatitis C virus, Huh-7): 1.37 µM
CC50 [2]: > 100 µM
CC50 [9]: > 100 µM
EC90 (Hepatitis C virus [10]; Hepatitis C virus, Huh-7): 1.61 µM
AUC (Rattus norvegicus [11]): 41893 ng·h/g
half-life [12]: > 24 h
CC50 [13]: > 100 µM
EC90 (Hepatitis C virus [14]; Hepatitis C virus, Huh-7): 1.37 µM
CC50 [15]: > 100 µM

SMILES: CCOc1nc(N)nc2c1ncn2[C@@H]1O[C@@H]2CO[P@](=O)(OC(C)C)O[C@H]2[C@@]1(C)F (stereo in doubt; 24b)
Stability ([5]; simulated gi fluid): 18 h
EC90 (Hepatitis C virus [1]): 0.69 µM
EC90 (Hepatitis C virus [10]): 0.86 µM
EC90 (Hepatitis C virus [14]): 0.69 µM
